From patent publication US20140087369A1, “INFECTION DETECTION METHODS AND SYSTEMS AND RELATED COMPOUNDS AND COMPOSITIONS” (priority 2010, published 2014)

System: viral neuraminidase
Format: biochemical, influenza virus
Details: pH 5.5

CC(=O)NC1C(O)CC(OCC2(C)CC2CC2CC3CC3(C)C2(C)C)(C(=O)O)OC1CC(O)CO [javanol, Sodium ([(1R,2S)-1-methyl-2-[[(1R,3S,5S)-1,2,2-trimethyl-3-bicyclo[3.1.0]hexanyl]methyl]cyclopropyl]methyl-5-acetamido-3,5-dideoxy-α-D-glycero-D-galacto-2-nonulopyranoside)onate]
enzymatic cleavage of the substrate and release of odorant (decrease of substrate signal, appearance of cleavage product signals): substrate is still present

Sodium (4-(4-hydroxy-3-methoxyphenyl)butan-2-one-5-acetamido-3,5-dideoxy-α-D-glycero-D-galacto-2-nonulopyranoside)onate [zingerone]
enzymatic cleavage of the substrate and release of odorant (decrease of substrate signal, appearance of cleavage product signals): significant loss of peak at 508.3 amu
